What was measured:
Type in all cases: cell-based
human opioid κ receptor = biological target: T1, human opioid κ receptor (Homo sapiens, UniProt P41145); experiment: Opioid receptor function test (agonist activity, Lance Ultra cAMP kit), κ receptor; conditions: for Emax: maximum reaction relative to control drug U-69593 taken as 100%
T1 construct: host or cells: CHO cells
Excerpt: (§1) Opioid Receptor Function Test
(§2) Functional activity of the compound provided by the present invention on μ, δ, and κ opioid receptors was examined.
(§3) Method: Using a Lance Ultra cAMP kit (Perkin Elmer), the functional activity was examined by a predetermined method. In evaluation of agonist activity, CHO cells expressing each of human opioid receptors (δ, μ, and κ: accession numbers and catalog numbers are described below) were reacted with a test compound in an assay buffer (1× HBSS, […], pH 7.4, […] isobutylmethylxanthine (IBMX), 7.5% BSA) in the presence of 10 μM forskolin for 30 minutes. Subsequently, a cAMP detection reagent in the kit was added. One hour later, time-resolved fluorescence measurement was performed using an EnVision plate reader (Perkin Elmer). The test compound and each control drug (δ: SNC 80, μ: DAMGO, κ: U-69593) were evaluated in a concentration range of 10^−12 to 10^−5 M. A dose reaction curve of the test compound was determined from a fluorescence value at 665 nm, and an EC50 value and an Emax value were calculated. The Emax value was determined as a ratio of a maximum reaction of the test compound when a maximum reaction of each control drug was taken as 100%.

hERG channel = biological target: T2, hERG channel (Homo sapiens, UniProt Q12809); experiment: hERG potassium channel inhibition test (auto patch clamp); conditions: hERG channel stably expressing CHO cells, perfused at room temperature for 5 minutes
T2 construct: host or cells: CHO cells
T2 sequence (Q12809 whole entry, the tested form may be a part): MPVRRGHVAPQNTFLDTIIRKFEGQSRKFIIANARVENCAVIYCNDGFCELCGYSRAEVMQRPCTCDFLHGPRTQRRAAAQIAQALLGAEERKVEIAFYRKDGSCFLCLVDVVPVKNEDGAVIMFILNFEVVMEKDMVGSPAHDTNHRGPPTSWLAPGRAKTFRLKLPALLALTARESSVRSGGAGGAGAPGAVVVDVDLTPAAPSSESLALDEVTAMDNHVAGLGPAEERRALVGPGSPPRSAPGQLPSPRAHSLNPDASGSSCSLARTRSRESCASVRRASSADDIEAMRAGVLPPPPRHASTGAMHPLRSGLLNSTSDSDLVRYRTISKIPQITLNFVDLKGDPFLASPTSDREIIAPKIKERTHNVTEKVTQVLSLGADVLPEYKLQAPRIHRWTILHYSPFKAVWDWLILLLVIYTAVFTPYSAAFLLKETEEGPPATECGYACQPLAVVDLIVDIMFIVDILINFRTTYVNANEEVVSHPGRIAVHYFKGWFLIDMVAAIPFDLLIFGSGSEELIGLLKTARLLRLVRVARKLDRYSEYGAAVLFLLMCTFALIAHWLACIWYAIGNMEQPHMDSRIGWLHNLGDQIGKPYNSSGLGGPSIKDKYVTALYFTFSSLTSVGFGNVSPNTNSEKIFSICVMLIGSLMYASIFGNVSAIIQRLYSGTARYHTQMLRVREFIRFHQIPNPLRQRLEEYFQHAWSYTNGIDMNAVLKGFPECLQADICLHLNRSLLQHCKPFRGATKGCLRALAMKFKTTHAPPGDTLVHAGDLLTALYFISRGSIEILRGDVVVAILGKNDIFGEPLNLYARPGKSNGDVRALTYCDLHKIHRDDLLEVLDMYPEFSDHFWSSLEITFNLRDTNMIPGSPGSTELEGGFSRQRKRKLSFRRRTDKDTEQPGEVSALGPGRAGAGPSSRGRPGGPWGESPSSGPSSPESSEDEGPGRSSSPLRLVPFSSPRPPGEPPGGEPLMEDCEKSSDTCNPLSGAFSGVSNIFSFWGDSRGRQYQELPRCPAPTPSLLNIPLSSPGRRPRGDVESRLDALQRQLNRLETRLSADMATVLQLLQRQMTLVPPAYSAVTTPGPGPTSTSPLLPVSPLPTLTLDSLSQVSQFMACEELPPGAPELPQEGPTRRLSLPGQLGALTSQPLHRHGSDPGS
Procedure: Ether-a-Go-Go Related Gene (hERG) Potassium Channel Inhibition Test
A test was performed using hERG channel stably expressing CHO cells (purchased from Channelopathy Foundation) with a Port-a-Patch auto patch clamping device (Nanion Technologies). A membrane potential of the cells was held at −80 mV, and then a test pulse of −50 mV for 1.5 seconds was applied at a frequency of once every 10 seconds following a depolarization pulse of +20 mV for 1.5 seconds. An hERG current was confirmed by a tail current induced by the test pulse. A test compound was dissolved in an extracellular solution ([…] NaCl, 4 mM KCl, 1.82 mM CaCl2, 1 mM MgCl2, 105 mM D(+)-glucose, 10 mM HEPES, pH 7.4) and perfused at room temperature for 5 minutes. An inhibition ratio was determined from a ratio of a tail current value after application of the compound when a maximum tail current value before application of the compound was taken as 100%. For the test, cells having a peak current value of the tail current of 300 pA or more, tail current run-down of less than 10% of a current initial value, and a leak current of less than 200 pA were used.

human opioid μ receptor = biological target: T3, human opioid μ receptor (Homo sapiens, UniProt P35372); experiment: Opioid receptor function test (agonist activity, Lance Ultra cAMP kit), μ receptor; conditions: for Emax: maximum reaction relative to control drug DAMGO taken as 100%
T3 construct: host or cells: CHO cells
T3 sequence (P35372 whole entry): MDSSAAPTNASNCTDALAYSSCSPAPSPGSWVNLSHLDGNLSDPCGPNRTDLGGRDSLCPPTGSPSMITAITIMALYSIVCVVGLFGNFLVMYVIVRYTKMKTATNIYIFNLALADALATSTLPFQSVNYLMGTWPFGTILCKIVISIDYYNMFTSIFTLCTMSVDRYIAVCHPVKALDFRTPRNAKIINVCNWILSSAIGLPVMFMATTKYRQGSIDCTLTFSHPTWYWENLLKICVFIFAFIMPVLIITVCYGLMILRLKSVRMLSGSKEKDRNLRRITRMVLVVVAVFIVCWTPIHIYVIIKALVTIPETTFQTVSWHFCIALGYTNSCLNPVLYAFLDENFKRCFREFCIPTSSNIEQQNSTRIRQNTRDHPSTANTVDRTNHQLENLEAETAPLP
Excerpt: as §1, §2, §3

human opioid δ receptor = biological target: T4, human opioid δ receptor (Homo sapiens, UniProt P41143); experiment: Opioid receptor function test (agonist activity, Lance Ultra cAMP kit), δ receptor; conditions: for Emax: maximum reaction relative to control drug SNC 80 taken as 100%
T4 construct: host or cells: CHO cells
T4 sequence (P41143 whole entry): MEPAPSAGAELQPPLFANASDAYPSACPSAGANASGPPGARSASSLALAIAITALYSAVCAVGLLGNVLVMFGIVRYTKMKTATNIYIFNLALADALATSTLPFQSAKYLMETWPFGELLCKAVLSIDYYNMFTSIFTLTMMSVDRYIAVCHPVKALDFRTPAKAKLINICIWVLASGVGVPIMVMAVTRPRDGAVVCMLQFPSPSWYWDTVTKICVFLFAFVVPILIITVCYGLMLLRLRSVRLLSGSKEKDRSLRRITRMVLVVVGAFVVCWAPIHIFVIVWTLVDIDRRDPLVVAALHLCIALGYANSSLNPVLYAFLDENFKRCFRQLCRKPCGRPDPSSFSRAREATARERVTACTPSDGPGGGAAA
Excerpt: as §1, §2, §3

T1 sequence (P41145 whole entry): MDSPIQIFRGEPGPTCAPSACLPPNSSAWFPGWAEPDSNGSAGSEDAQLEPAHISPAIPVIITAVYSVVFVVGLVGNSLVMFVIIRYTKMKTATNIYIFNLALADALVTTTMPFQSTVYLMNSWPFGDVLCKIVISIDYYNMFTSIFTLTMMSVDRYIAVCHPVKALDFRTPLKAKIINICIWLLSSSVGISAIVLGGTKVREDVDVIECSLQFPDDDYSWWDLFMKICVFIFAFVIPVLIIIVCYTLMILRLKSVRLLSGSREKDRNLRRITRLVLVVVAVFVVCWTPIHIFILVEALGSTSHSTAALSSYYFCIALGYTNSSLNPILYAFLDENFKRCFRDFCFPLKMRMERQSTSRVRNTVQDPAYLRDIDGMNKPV

| Structure (SMILES) | EC50 (human opioid κ receptor) | Emax (human opioid κ receptor) | hERG inhibitory effect (tail current inhibition) (hERG channel) | EC50 (human opioid μ receptor) | Emax (human opioid μ receptor) | EC50 (human opioid δ receptor) | Emax (human opioid δ receptor) |
| --- | --- | --- | --- | --- | --- | --- | --- |
| Cc1c2c(nn1C(C)C)C[C@]13CCN(CC4CC4)[C@H](Cc4ccc(O)cc41)[C@]3(O)C2 [Compound 22, (6R,6aS,11aR)-14-(cyclopropylmethyl)-9-isopropyl methyl-5,6,9,11-tetrahydro-6,11a-(epiminoethano)naphtho[2,1-f]indazole-2,6a(7H)-diol] | 13 nM | 35% | only weak inhibitory effect | 15 nM | 15% | 0.18 nM | 107% |
| Cc1nn(C(C)C)c2c1C[C@@]1(O)[C@H]3Cc4ccc(O)cc4[C@@]1(CCN3CC1CC1)C2 [Compound 23, (6R,6aS,11aR)-14-(cyclopropylmethyl)-10-isopropyl-8-methyl-5,6,10,11-tetrahydro-6,11a-(epiminoethano)naphtho[2,1-f]indazole-2,6a(7H)-diol] | – | – | only weak inhibitory effect | – | – | 0.48 nM | 95% |
| Cc1c2c(nn1C(C)(C)C)C[C@]13CCN(CC4CC4)[C@H](Cc4ccc(O)cc41)[C@]3(O)C2 [Compound 24, (6R,6aS,11aR)-9-(tert-butyl)-14-(cyclopropylmethyl)-8-methyl-5,6,9,11-tetrahydro-6,11a-(epiminoethano)naphtho[2,1-f]indazole-2,6a(7H)-diol] | 17 nM | 23% | only weak inhibitory effect | – | – | 0.14 nM | 108% |
| Cc1nn(CCO)c2c1C[C@@]1(O)[C@H]3Cc4ccc(O)cc4[C@@]1(CCN3CC1CC1)C2 [Compound 44, (6R,6aS,11aR)-14-(cyclopropylmethyl)-10-(2-hydroxyethyl)-8-methyl-5,6,10,11-tetrahydro-6,11a-(epiminoethano)naphtho[2,1-f]indazole-2,6a(7H)-diol] | – | – | only weak inhibitory effect | – | – | – | – |
| Cc1c2c(nn1C1CCCC1)C[C@]13CCN(CC4CC4)[C@H](Cc4ccc(O)cc41)[C@]3(O)C2 [Compound 87, (6R,6aS,11aR)-9-cyclopentyl-14-(cyclopropylmethyl)-8-methyl-5,6,9,11-tetrahydro-6,11a-(epiminoethano)naphtho[2,1-f]indazole-2,6a(7H)-diol] | 59 nM | 30% | – | 28 nM | 24% | 0.11 nM | 106% |
| Cc1nn(C2CCN(C)CC2)c2c1C[C@@]1(O)[C@H]3Cc4ccc(O)cc4[C@@]1(CCN3CC1CC1)C2 [Compound 91, (6R,6aS,11aR)-14-(cyclopropylmethyl)-8-methyl-10-(1-methylpiperidin-4-yl)-5,6,10,11-tetrahydro-6,11a-(epiminoethano)naphtho[2,1-f]indazole-2,6a(7H)-diol] | 15 nM | 25% | – | 32 nM | 12% | 0.23 nM | 112% |
| Cc1c2c(nn1C1CCN(C)CC1)C[C@]13CCN(CC4CC4)[C@H](Cc4ccc(O)cc41)[C@]3(O)C2 [Compound 92, (6R,6aS,11aR)-14-(cyclopropylmethyl)-8-methyl-9-(1-methylpiperidin-4-yl)-5,6,9,11-tetrahydro-6,11a-(epiminoethano)naphtho[2,1-f]indazole-2,6a(7H)-diol] | 16 nM | 20% | – | 52 nM | 17% | 0.51 nM | 103% |
